The values that follow come from article PMC3530194 (Bioorganic & medicinal chemistry letters, 2012).

In one series the test system is LS174T indicator cells. Type of series: cell-based. The conditions noted are these: human cells (LS174T), over the first 12 hours; Fig. 3A.
For series [1] the following is noted: cited from earlier work.
The format of series [2] is in vitro ADME, bovine.
Series [3] is classed as in vitro ADME, bovine. As to conditions: after 24 hours of serum pretreatment; Fig. 2D.
Series [4] deals with hereditary inclusion body myopathy mouse model. The conditions noted are these: cited from earlier work.
For series [5] the following is noted: Fig. 2E; for surface expression of azido-modified sialic acids: after 24 hours of FBS pre-treatment; for loss of surface azido-sialic acid signal: first four hours of FBS treatment.

Turning to `CCCC(=O)OC1O[C@H](CO)[C@@H](OC(=O)CCC)[C@H](OC(=O)CCC)[C@@H]1NC(C)=O` (stereo partly shown) [1,3,4-O-Bu3ManNAc], the “increased sialic acid production compared among analogs” value in the series with LS174T indicator cells is “statistically identical levels”. Also, the “side effects such as cytotoxicity” value in series [1] was “negligible”. The “reduction in analog-enhanced sialic acid production” value in series [2] (after four hours of serum treatment, Fig. 2C) is reported as “only a relatively minor reduction”.
As for `CCCC(=O)OC[C@H]1OC(O)[C@@H](NC(C)=O)[C@@H](OC(=O)CCC)[C@@H]1OC(=O)CCC` (stereo partly shown) [3,4,6-O-Bu3ManNAc], the “increased sialic acid production compared among analogs” value in the series with LS174T indicator cells was “statistically identical levels”. In addition, the “loss of analog-enhanced cell growth inhibition” value in series [3] is recorded as “complete reversal”.
On to `CC(=O)N[C@@H]1C(OC(C)=O)O[C@H](COC(C)=O)[C@@H](OC(C)=O)[C@@H]1OC(C)=O` (stereo partly shown) [Ac4ManNAc, reference compound], for which the “time of peak sialic acid production after administration” value in series [4] was “peaked as soon as four hours after administration”. Also, the “serum inactivation of analog, read as sialic acid production in indicator cells” value in series [2] (FBS (100% serum) pre-incubation, Fig. 2A) was “refractory to serum inactivation”.
Consider `CC(=O)OC[C@H]1OC(OC(C)=O)[C@@H](NC(=O)CN=[N+]=[N-])[C@@H](OC(C)=O)[C@@H]1OC(C)=O` (stereo partly shown) [Ac4ManNAz, reference compound], for which, in series [5], the “surface expression of azido-modified sialic acids” value is “reduction, but not complete reversal” and the “loss of surface azido-sialic acid signal” value is on record as “refractory to a loss of signal”.
Consider `CCCC(=O)OCC1OC(OC(=O)CCC)C(NC(C)=O)[C@@H](OC(=O)CCC)[C@@H]1OC(=O)CCC` (stereo partly shown) [Bu4ManNAc], for which the “increased sialic acid production compared among analogs” value in the series with LS174T indicator cells is on record as “statistically identical levels”. In series [2] (lower concentrations of FBS (10% or 25%), Fig. 2B), the “reversion of analog-enhanced sialic acid production in indicator cells” value is “did not result in a statistically significant reversion”.
For the compound `CCCC(=O)OC[C@H]1OC(OC(=O)CCC)[C@@H](NC(=O)CN=[N+]=[N-])[C@@H](OC(=O)CCC)[C@@H]1OC(=O)CCC` (stereo partly shown) [Bu4ManNAz], in series [5], the “surface expression of azido-modified sialic acids” value is reported as “reduction, but not complete reversal” and the “loss of surface azido-sialic acid signal” value is reported as “refractory to a loss of signal”.
